In ChEMBL document CHEMBL1138574, “Regioselective synthesis and stereochemical structure of anti-tumor active dispiro[3H-indole-3,2'-pyrrolidine-3',3''-piperidine]-2(1H),4''-diones” (2009):

Columns and labels:
Format in all cases: functional
[1] = test system: A549; test: Antitumor activity against human A549 cells assessed as cell growth at 10 uM after 48 hrs by sulforhodamine B assay; settings: A549, 48 h, read-out: Activity
[2] = test system: HOP-62; test: Antitumor activity against human HOP62 cells assessed as cell growth at 10 uM after 48 hrs by sulforhodamine B assay; settings: HOP-62, 48 h, read-out: Activity
[3] = test system: HOP-92; test: Antitumor activity against human HOP92 cells assessed as cell growth at 10 uM after 48 hrs by sulforhodamine B assay; settings: HOP-92, 48 h, read-out: Activity
[4] = test system: NCI-H23; test: Antitumor activity against human NCI-H23 cells assessed as cell growth at 10 uM after 48 hrs by sulforhodamine B assay; settings: NCI-H23, 48 h, read-out: Activity
[5] = test system: NCI-H322M; test: Antitumor activity against human NCI-H322M cells assessed as cell growth at 10 uM after 48 hrs by sulforhodamine B assay; settings: read-out: Activity
[6] = test system: NCI-H522; test: Antitumor activity against human NCI-H522 cells assessed as cell growth at 10 uM after 48 hrs by sulforhodamine B assay; settings: NCI-H522, 48 h, read-out: Activity
[7] = test system: COLO 205; test: Antitumor activity against human COLO205 cells assessed as cell growth at 10 uM after 48 hrs by sulforhodamine B assay; settings: COLO 205, 48 h, read-out: Activity
[8] = test system: HCC 2998; test: Antitumor activity against human HCC2998 cells assessed as cell growth at 10 uM after 48 hrs by sulforhodamine B assay; settings: HCC 2998, 48 h, read-out: Activity
[9] = test system: HCT-116; test: Antitumor activity against human HCT116 cells assessed as cell growth at 10 uM after 48 hrs by sulforhodamine B assay; settings: HCT-116, 48 h, read-out: Activity
[10] = test system: HCT-15; test: Antitumor activity against human HCT15 cells assessed as cell growth at 10 uM after 48 hrs by sulforhodamine B assay; settings: HCT-15, 48 h, read-out: Activity
[11] = test system: BT-549; test: Antitumor activity against human BT549 cells assessed as cell growth at 10 uM after 48 hrs by sulforhodamine B assay; settings: BT-549, 48 h, read-out: Activity
[12] = Antitumor activity against human Hs 578T cells assessed as cell growth at 10 uM after 48 hrs by sulforhodamine B assay; settings: read-out: Activity
[13] = test system: MCF7; test: Antitumor activity against human MCF7 cells assessed as cell growth at 10 uM after 48 hrs by sulforhodamine B assay; settings: MCF7, 48 h, read-out: Activity
[14] = test system: MDA-MB-468; test: Antitumor activity against human MDA-MB-468 cells assessed as cell growth at 10 uM after 48 hrs by sulforhodamine B assay; settings: MDA-MB-468, 48 h, read-out: Activity
[15] = test system: NCI/ADR-RES; test: Antitumor activity against human NCI/ADR-RES cells assessed as cell growth at 10 uM after 48 hrs by sulforhodamine B assay; settings: read-out: Activity
[16] = test system: T47D; test: Antitumor activity against human T47D cells assessed as cell growth at 10 uM after 48 hrs by sulforhodamine B assay; settings: read-out: Activity
[17] = test system: SK-OV-3; test: Antitumor activity against human SKOV3 cells assessed as cell growth at 10 uM after 48 hrs by sulforhodamine B assay; settings: SK-OV-3, 48 h, read-out: Activity
[18] = test system: CCRF-CEM; test: Antitumor activity against human CCRF-CEM cells assessed as cell growth at 10 uM after 48 hrs by sulforhodamine B assay; settings: read-out: Activity
[19] = test system: SR; test: Antitumor activity against human SR cells assessed as cell growth at 10 uM after 48 hrs by sulforhodamine B assay; settings: read-out: Activity
[20] = test system: 786-0; test: Antitumor activity against human 786-0 cells assessed as cell growth at 10 uM after 48 hrs by sulforhodamine B assay; settings: 786-0, 48 h, read-out: Activity
[21] = test system: CAKI-1; test: Antitumor activity against human Caki1 cells assessed as cell growth at 10 uM after 48 hrs by sulforhodamine B assay; settings: CAKI-1, 48 h, read-out: Activity
[22] = test system: RXF 393; test: Antitumor activity against human RXF393 cells assessed as cell growth at 10 uM after 48 hrs by sulforhodamine B assay; settings: RXF 393, 48 h, read-out: Activity
[23] = test system: SN12C; test: Antitumor activity against human SN12C cells assessed as cell growth at 10 uM after 48 hrs by sulforhodamine B assay; settings: read-out: Activity
[24] = test system: TK-10; test: Antitumor activity against human TK10 cells assessed as cell growth at 10 uM after 48 hrs by sulforhodamine B assay; settings: TK-10, 48 h, read-out: Activity
[25] = test system: LOX IMVI; test: Antitumor activity against human LOXIMVI cells assessed as cell growth at 10 uM after 48 hrs by sulforhodamine B assay; settings: read-out: Activity
[26] = test system: Malme-3M; test: Antitumor activity against human MALME-3M cells assessed as cell growth at 10 uM after 48 hrs by sulforhodamine B assay; settings: read-out: Activity
[27] = test system: SK-MEL-2; test: Antitumor activity against human SK-MEL-2 cells assessed as cell growth at 10 uM after 48 hrs by sulforhodamine B assay; settings: SK-MEL-2, 48 h, read-out: Activity
[28] = test system: SK-MEL-28; test: Antitumor activity against human SK-MEL-28 cells assessed as cell growth at 10 uM after 48 hrs by sulforhodamine B assay; settings: SK-MEL-28, 48 h, read-out: Activity
[29] = test system: UACC-257; test: Antitumor activity against human UACC257 cells assessed as cell growth at 10 uM after 48 hrs by sulforhodamine B assay; settings: UACC-257, 48 h, read-out: Activity
[30] = test system: UACC-62; test: Antitumor activity against human UACC62 cells assessed as cell growth at 10 uM after 48 hrs by sulforhodamine B assay; settings: UACC-62, 48 h, read-out: Activity
[31] = test system: SF-268; test: Antitumor activity against human SF268 cells assessed as cell growth at 10 uM after 48 hrs by sulforhodamine B assay; settings: SF-268, 48 h, read-out: Activity
[32] = test system: SF-539; test: Antitumor activity against human SF539 cells assessed as cell growth at 10 uM after 48 hrs by sulforhodamine B assay; settings: SF-539, 48 h, read-out: Activity
[33] = test system: SNB-75; test: Antitumor activity against human SNB75 cells assessed as cell growth at 10 uM after 48 hrs by sulforhodamine B assay; settings: SNB-75, 48 h, read-out: Activity
[34] = test system: U-251; test: Antitumor activity against human U251 cells assessed as cell growth at 10 uM after 48 hrs by sulforhodamine B assay; settings: U-251, 48 h, read-out: Activity
[35] = test system: Rattus norvegicus; test: Antiinflammatory activity in Wister albino rat assessed as inhibition of carrageenan-induced paw oedema at 50 mg/kg, ip administered 1 hr before carrageenan challenge measured after 3 hrs of induction of inflammation relative to control; settings: route intraperitoneal
[36] = test system: Rattus norvegicus; test: Antiinflammatory activity in Wister albino rat assessed as inhibition of carrageenan-induced paw oedema at 50 mg/kg, ip administered 1 hr before carrageenan challenge measured after 4 hrs of induction of inflammation relative to control; settings: route intraperitoneal
[37] = test system: Rattus norvegicus; test: Antiinflammatory activity in Wister albino rat assessed as inhibition of carrageenan-induced paw oedema at 50 mg/kg, ip administered 1 hr before carrageenan challenge measured after 4 hrs of induction of inflammation relative to indomethacin; settings: route intraperitoneal

Structure (SMILES): CN1C/C(=C\c2ccc(-c3cccs3)cc2)C(=O)[C@]2(C1)[C@@H](c1ccc(-c3cccs3)cc1)CN(C)[C@@]21C(=O)N(C)c2ccccc21
- growth at 10 µM [1]: 58%
- growth at 10 µM [2]: 58.8%
- growth at 10 µM [3]: 41.1%
- growth at 10 µM [4]: 26.1%
- growth at 10 µM [5]: 75%
- growth at 10 µM [6]: 49.4%
- growth at 10 µM [7]: 69%
- growth at 10 µM [8]: 40.6%
- growth at 10 µM [9]: 30.6%
- growth at 10 µM [10]: 62.1%
- growth at 10 µM [11]: 79.7%
- growth at 10 µM [12]: 79.3%
- growth at 10 µM [13]: 50.4%
- growth at 10 µM [14]: 33.4%
- growth at 10 µM [15]: 37.7%
- growth at 10 µM [16]: 22.7%
- growth at 10 µM [17]: 59.5%
- growth at 10 µM [18]: 56.4%
- growth at 10 µM [19]: 30.5%
- growth at 10 µM [20]: 65.8%
- growth at 10 µM [21]: 57.2%
- growth at 10 µM [22]: 55.6%
- growth at 10 µM [23]: 64.3%
- growth at 10 µM [24]: 78.8%
- growth at 10 µM [25]: 65%
- growth at 10 µM [26]: 76.4%
- growth at 10 µM [27]: 68.6%
- growth at 10 µM [28]: 80%
- growth at 10 µM [29]: 64.6%
- growth at 10 µM [30]: 47.6%
- growth at 10 µM [31]: 72.4%
- growth at 10 µM [32]: 75.4%
- growth at 10 µM [33]: 64.5%
- growth at 10 µM [34]: 62.8%
- inhibition in vivo at 50 mg/kg [35]: 73.9%
- inhibition in vivo at 50 mg/kg [36]: 69.8%
- inhibition in vivo at 50 mg/kg [37]: 124%
